Results: article PMC7822874, “Chemoprotective antimalarials identified through quantitative high-throughput screening of Plasmodium blood and liver stage parasites” (Scientific Reports, 2021)
Like-named read-outs stand apart in the source and are kept apart here.

How the values were obtained:
[1] = tested on: Plasmodium falciparum Dd2 asexual blood stage parasites; test: microbe, parasite or virus in culture; set-up: species or system Plasmodium falciparum Dd2 in human erythrocytes; single determination (one 11-point concentration-response curve); conditions: Plasmodium falciparum, DD2, Erythrocyte, 72 h; read-out: AC50
in vitro [2] = conditions: human
in vitro [3] = conditions: human, n = 1
[4] = tested on: P. berghei-ANKA-GFP-LucCON liver stage parasites in HepG2-A16-CD81EGFP cells; test: P. berghei liver stage Pb-Luc assay, Method 1 (UCSD, 1536-well); type: cell-based, Plasmodium berghei; conditions: for Max Resp (signal direction of the dose response) / AC50 / Log AC50 (M): Method 1; for Max Resp (signal direction of the dose response): Decrease = decreasing P. berghei viability with dose, Increase = increasing signal, Inactive = no dose response; for activity at 1 µM / activity at 3 µM: 48 h, average of 2 wells on a 1536 well plate; for activity at 1 µM: 1 uM (compounds provided at 10 mM); for activity at 3 µM: 3 uM (compounds provided at 10 mM)
[5] = HepG2-A16-CD81EGFP cells, uninfected
[6] = Hill fit, 50% of maximum activity response, read-out: AC50
[7] = log10 of molar AC50 from Hill fit
[8] = Plasmodium berghei, Hill fit, 50% of maximum activity response, read-out: AC50
[9] = Plasmodium berghei, log10 of molar AC50 from Hill fit, read-out: Log AC50 (converted)

Compound	AC50 [1] [µM]	CC50 at 48 h (in vitro [3]; HepG2 cells) [µM]	other results
CCNC(S)=N/N=C/c1sc(N2CCCCC2)nc1-c1cccs1 [MLS000335256-01]	0.668	15.3	viability at 66 h (in vitro [2]; [5]): 103%
O=C(Nc1ccc([N+](=O)[O-])cc1)Nc1nc(-c2ccc(Cl)s2)cs1 [MLS000722351-01]	2.99	13.7	Max Resp (signal direction of the dose response) [4]: Decrease; AC50 [4, 6]: 0.224 µM; Log AC50 (M) [4, 7]: -6.650 M; AC50 [4, 8]: 0.178 µM; AC50 [4, 9]: 0.178 µM; viability at 66 h (in vitro [2]; [5]): 90%
Cc1ccc(NCC(=O)Nc2cccc(F)c2)cc1S(=O)(=O)N1CCCCCC1 [MLS001128515-01]	–	27.3	viability at 48 h, 1 µM (in vitro [2]; [5]): 93%; viability at 48 h, 3 µM (in vitro [2]; [5]): 83%
CN(C)CCCn1cnc2c(c1=N)C(c1ccccc1)c1ccc3ccccc3c1O2 (centres unmarked) [MLS001216375-01]	3.76	30.6	viability at 48 h, 1 µM (in vitro [2]; [5]): 111%; viability at 48 h, 3 µM (in vitro [2]; [5]): 110%
c1ccc(CNc2nc(-c3ccccn3)nc3ccccc23)cc1 [MLS001165148-01]	5.31	10.9	viability at 48 h, 1 µM (in vitro [2]; [5]): 93%; viability at 48 h, 3 µM (in vitro [2]; [5]): 87%
O=S(=O)(Nc1cc2nc3ccccc3nc2n1Cc1ccccc1)c1ccc(Cl)cc1 [MLS002583111-01]	1.19	19.3	viability at 66 h (in vitro [2]; [5]): 103%
O=C(NCCNc1ccnc2cc(Cl)ccc12)c1ccccc1F [MLS001163130-01]	1.68	27.3	viability at 48 h, 1 µM (in vitro [2]; [5]): 106%; viability at 48 h, 3 µM (in vitro [2]; [5]): 86%
c1ccc(-c2cccc(-c3ccccn3)n2)nc1 [MLS000048666-01]	–	–	viability at 66 h (in vitro [2]): 17.7%; CC50 at 48 h (in vitro [3]; hepg2): 15.3 µM
CCN1CCN(c2ccc(Nc3ccnc4ccccc34)cc2)CC1 [MLS001360577-01]	1.06	17.2	viability at 48 h, 1 µM (in vitro [2]; [5]): 95%; viability at 48 h, 3 µM (in vitro [2]; [5]): 91%
Oc1cc(Nc2ccc(N3CCCCC3)cc2)cc2cccnc12 [NCGC00183804-01]	0.841	17.2	viability at 48 h, 1 µM (in vitro [2]; [5]): 105%; viability at 48 h, 3 µM (in vitro [2]; [5]): 94%
O=S(=O)(c1ccc(Cl)cc1)N1CCN(Cc2ccc(O)c3ncccc23)CC1 [MLS000774708-01]	13.3	10.9	–
CCOC(=O)C1CCN(C(=O)c2c(C)oc3c2C(=O)c2ccccc2C3=O)CC1 [MLS000724686-01]	0.531	15.3	viability at 66 h (in vitro [2]; [5]): 103%
Oc1ccc(-c2nnc(S)n2-c2ccc3c(c2)OCCO3)c(O)c1 [MLS000332001-01]	2.66	17.2	viability at 48 h, 1 µM (in vitro [2]; [5]): 98%; viability at 48 h, 3 µM (in vitro [2]; [5]): 95%
COc1cc(NC2CCCCC2O)c2nc(-c3ccc(Cl)cc3)ccc2c1 (centres unmarked) [MLS000766166-01]	5.31	13.7	viability at 48 h, 1 µM (in vitro [2]; [5]): 111%; viability at 48 h, 3 µM (in vitro [2]; [5]): 101%
COc1cnc(-c2ccccn2)nc1N(C)c1ccccc1 [MLS001166302-01]	5.96	13.7	–
CCOCc1cc(CN2CCN(c3ccccc3OC)CC2)c(O)c2ncccc12 [NCGC00114940-01]	5.96	9.68	–
Cc1[nH]n(-c2ccccc2)c(=O)c1/C=N/Nc1nncc(-c2ccccc2)n1 [MLS000579075-01]	4.22	13.7	–
Oc1c(C(Nc2ccccn2)c2ccccc2F)ccc2cccnc12 (centres unmarked) [NCGC00135751-01]	9.44	27.3	–
Cc1c(NN=C(C#N)C(=O)c2ccccc2)c(=O)n(-c2ccccc2)n1C [MLS000567622-01]	6.68	12.2	–
C/C(=N\NC(=O)c1ccccc1OCc1ccc(F)cc1)c1ccccn1 [MLS002162875-01]	4.73	17.2	viability at 48 h, 1 µM (in vitro [2]; [5]): 105%; viability at 48 h, 3 µM (in vitro [2]; [5]): 79%
CCCCC(=O)NC(c1ccc(C(C)C)cc1)c1ccc2cccnc2c1O (centres unmarked) [MLS001204647-01]	7.5	15.3	–
Nc1nc(-c2ccccn2)nc(N)c1Cc1ccccc1F [MLS000691905-01]	13.3	27.3	–
O=C(NNc1ccnc2cc(Cl)ccc12)C1CCCCC1 [MLS000770801-01]	7.5	12.2	–
c1ccc(-c2nc(NCc3ccco3)c3ccccc3n2)nc1 [MLS000040057-01]	5.96	27.3	–
CCOC(=O)c1ccc(Nc2nc3nonc3nc2Nc2cccc(C)c2C)cc1 [NCGC00117662-01]	8.41	10.9	–
CC(C)OCc1cc(CN2CCN(c3cccc(C(F)(F)F)c3)CC2)c(O)c2ncccc12 [NCGC00114970-01]	6.68	10.9	–

Compound	AC50 [1] [µM]	CC50 at 48 h (in vitro [3]; HepG2 cells) [µM]	other results
CCCOC(=O)c1[nH]c2c(c1C)C(=O)CC(c1cc(OC)c(OC)c(OC)c1)C2 (centres unmarked) [MLS000116504-01]	6.68	21.7	–
COc1ccc(/C=N/Nc2cc(C)nc(-n3nc(C)cc3C)n2)c(OC)c1 [MLS000589396-01]	5.31	24.3	–
Cc1cc(Nc2sc(C(=O)c3ccc(F)cc3)c(N)c2C(=O)Nc2ccc(F)cc2)ccc1Cl [NCGC00138324-01]	0.75	2.73	–
c1csc(-c2ccnc(N[C@H]3CO[C@H]4[C@@H]3OC[C@@H]4NCC3CCCCC3)n2)c1 [NCGC00395181-01]	12.2	49.8	–
CC(C)Nc1ccc(Nc2ccnc3cc4ccccc4cc23)cc1 [MLS000766754-01]	–	27.3	activity at 1 µM ([4]; Plasmodium berghei, column 11, read-out: Pb-Luc (P. berghei liver stage), % of control, lower concentration, first repeat): 101%; activity at 1 µM ([4]; Plasmodium berghei, column 12, read-out: Pb-Luc (P. berghei liver stage), % of control, lower concentration, second repeat): 80%; activity at 3 µM ([4]; Plasmodium berghei, column 8, read-out: Pb-Luc (P. berghei liver stage), % of control, higher concentration, first repeat): 10%; activity at 3 µM ([4]; Plasmodium berghei, column 9, read-out: Pb-Luc (P. berghei liver stage), % of control, higher concentration, second repeat): 14%; viability at 48 h, 1 µM (in vitro [2]; [5]): 114%; viability at 48 h, 3 µM (in vitro [2]; [5]): 78%
COc1ccc(Nc2cc(O)c3ncccc3c2)cc1 [NCGC00183797-01]	0.75	19.3	viability at 48 h, 1 µM (in vitro [2]; [5]): 89%; viability at 48 h, 3 µM (in vitro [2]; [5]): 73%
O=C1C(Nc2ccccc2)=C/C(=N\S(=O)(=O)c2cccs2)c2ccccc21 [MLS000374486-01]	0.335	12.2	viability at 48 h, 1 µM (in vitro [2]; [5]): 101%; viability at 48 h, 3 µM (in vitro [2]; [5]): 76%
c1ccc(Oc2nc(-c3ccccn3)nc3ccccc23)cc1 [MLS000769533-01]	7.5	9.68	–
CN(C)CC(O)COc1ccc(C(C)(C)c2ccc(OCC(O)CN(C)C)cc2)cc1 (centres unmarked) [MLS001073934-01]	8.41	21.7	–
Cc1sc(NC(=O)c2ccco2)c(C(c2cccnc2)N2CCC(C)CC2)c1C (centres unmarked) [MLS000536186-01]	5.31	8.62	–
Fc1ccc(Nc2nc3nonc3nc2Nc2cccc(C(F)(F)F)c2)cc1 [NCGC00117664-01]	1.68	4.32	–
COc1ccccc1NS(=O)(=O)c1cc(NC(=O)c2ccc(Cl)nc2)ccc1Cl [MLS000417369-01]	–	19.3	Max Resp (signal direction of the dose response) [4]: Decrease; AC50 [4, 6]: 2.51 µM; Log AC50 (M) [4, 7]: -5.600 M; AC50 [4, 8]: 2 µM; AC50 [4, 9]: 2 µM; viability at 66 h (in vitro [2]; [5]): 96.5%
COc1ccc2[nH]c(C[C@@H]3C[C@@H](C(C)C)[C@H](CNCc4ccccn4)C=C3C)nc2c1 [NCGC00391900-01]	0.769	7.03	–
c1ccc(CCNc2nc(-c3ccccn3)cs2)cc1 [MLS000708031-01]	7.5	21.7	–
COc1cnc(-c2ccccn2)nc1Sc1c(Cl)cccc1Cl [MLS000325774-01]	2.99	24.3	viability at 48 h, 1 µM (in vitro [2]; [5]): 106%; viability at 48 h, 3 µM (in vitro [2]; [5]): 99%
CN(C)CCNC(=O)c1nc2nc(-c3ccccc3)c(-c3cccc(F)c3)cc2n1C [NCGC00417874-01]	19.3	31.4	–
CCOC(=O)c1cnc(-n2nc(C)cc2C)nc1NNc1nc(-c2ccccc2)cc(-c2ccccc2)n1 [MLS000580862-01]	2.11	19.3	–
O=C(/C(=C/c1ccc(Cl)cc1)c1nc2ccccc2[nH]1)c1cccs1 [MLS000565128-01]	2.11	24.3	–
Cc1nn(-c2ccc(C(C)C)cc2)c(C)c1[C@@H]1C=C[C@@H](NCc2ccccc2)C1 [NCGC00392636-01]	21.7	44.4	–
FC(F)(F)c1cccc(Nc2nc3nonc3nc2Nc2ccc(Cl)cc2)c1 [NCGC00100377-01]	0.75	3.85	–
CCCC(=O)NC(c1ccccc1)c1ccc2cccnc2c1O (centres unmarked) [MLS001204078-01]	6.68	12.2	–
N=c1ccn(CC(=O)c2ccc(-c3ccccc3)cc2)cc1 [MLS000698051-01]	0.944	24.3	–
COc1cnc(-c2ccccn2)nc1NC(C)C [MLS000692222-01]	5.31	15.3	–
CCOC(=O)c1c(C)[nH]c2c1-c1ccccc1C(=O)C2=O [MLS000701140-01]	2.37	10.9	–
Nc1nc(-c2ccccn2)nc(N)c1Cc1ccc(Cl)cc1Cl [MLS000691892-01]	7.5	13.7	–
C[n+]1c2ccccc2nc2ccc(NCCO)cc21.[O-][Cl+3]([O-])([O-])[O-]	1.19	–	CC50 at 48 h (in vitro [3]; hepg2): 13.7 µM
